{
  "source": "patent US11878276B2",
  "about": "“Nanobiocatalyst and nanobiocatalytic membrane” (University of Vermont and State Agricultural College, priority 2017, dated 2024)",
  "test_system": "Gram positive and Gram negative bacteria",
  "experiment": "minimum inhibitory concentration of bismuth",
  "assay_type": "cell-based",
  "description": "In particular, in one embodiment, antimicrobial lipophilic bismuth dimercaptopropanol nanoparticles (BisBAL NPs) may be used. In one embodiment, the bismuth concentration on the membrane surface may be approximately 0.437 g/m^2. In one embodiment, the toxic range of Bi^+3 concentration (minimum inhibitory concentration) for Gram positive and Gram negative bacteria is 15-16 μM. […] In one embodiment, the bismuth nanoparticles are roughly spherical and are approximately 20 nm wide. […] In another embodiment, other antibacterial nanoparticles are also contemplated, such as, but not limited to Zinc Oxide (ZnO), Copper Oxide (CuO), Iron Oxide (Fe2O3), and Silver (Ag).",
  "data": [
    {"compound": "[Bi+3]", "note": "[Bi^+3]", "values": [
      {"measurement": "toxic range of Bi^+3 concentration (minimum inhibitory concentration)", "value": "15 to 16", "unit": "µM"}
    ]}
  ]
}
